Test results published in US11180474B2 (BRISTOL-MYERS SQUIBB COMPANY, priority 2016, dated 2021).
pIC50: −log10 of the molar value.

What was measured:
[1] = target: T1, human TLR8 (Homo sapiens, UniProt Q9NR97); assay: TLR8 inhibition reporter assay (HEK-Blue cells, SEAP reporter, R848 stimulation); type: cell-based; settings: HEK-Blue cells overexpressing human TLR8, R848 15.9 μM
T1 construct: host or cells: HEK-Blue cells
T1 sequence (Q9NR97 27-1041): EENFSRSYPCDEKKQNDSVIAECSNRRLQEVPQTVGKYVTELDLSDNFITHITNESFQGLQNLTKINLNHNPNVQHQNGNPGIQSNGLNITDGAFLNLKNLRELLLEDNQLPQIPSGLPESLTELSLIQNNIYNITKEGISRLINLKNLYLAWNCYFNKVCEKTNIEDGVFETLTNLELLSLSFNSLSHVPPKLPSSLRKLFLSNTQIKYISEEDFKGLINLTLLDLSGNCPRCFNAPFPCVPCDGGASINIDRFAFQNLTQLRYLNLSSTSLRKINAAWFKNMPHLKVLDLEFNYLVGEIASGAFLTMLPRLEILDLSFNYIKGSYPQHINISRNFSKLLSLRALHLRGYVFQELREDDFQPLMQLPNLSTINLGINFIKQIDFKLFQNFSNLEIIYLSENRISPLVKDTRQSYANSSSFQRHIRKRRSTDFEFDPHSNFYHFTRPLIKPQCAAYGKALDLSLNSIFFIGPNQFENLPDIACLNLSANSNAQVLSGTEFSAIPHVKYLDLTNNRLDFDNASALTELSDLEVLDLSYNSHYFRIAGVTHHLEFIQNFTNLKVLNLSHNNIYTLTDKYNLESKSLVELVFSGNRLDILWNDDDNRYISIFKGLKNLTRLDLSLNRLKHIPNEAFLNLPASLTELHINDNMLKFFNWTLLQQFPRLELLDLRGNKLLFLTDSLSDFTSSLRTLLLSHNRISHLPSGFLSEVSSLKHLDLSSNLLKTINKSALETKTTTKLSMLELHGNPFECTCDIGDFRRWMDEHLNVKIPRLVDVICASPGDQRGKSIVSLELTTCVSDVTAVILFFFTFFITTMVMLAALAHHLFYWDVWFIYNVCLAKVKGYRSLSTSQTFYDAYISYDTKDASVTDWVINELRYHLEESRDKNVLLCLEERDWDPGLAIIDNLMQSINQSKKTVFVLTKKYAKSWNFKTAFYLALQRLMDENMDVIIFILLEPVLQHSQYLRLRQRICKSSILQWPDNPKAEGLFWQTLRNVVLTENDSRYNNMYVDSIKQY
Method in brief: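 Cells (15000/well for TLR7, 20,000 for TLR8) were treated with compounds over 0.05 nM-50 μM final. After 22 h at 37° C, 5% CO2, SEAP was measured with HEK-Blue Detection reagent; percent inhibition was taken as reduction of agonist-plus-DMSO signal relative to a known inhibitor.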

[2] = target: T2, human TLR9 (Homo sapiens, UniProt Q9NR96); assay: TLR9 inhibition reporter assay (HEK-Blue cells, SEAP reporter, ODN2006 stimulation); type: cell-based; settings: HEK-Blue cells overexpressing human TLR9, ODN2006 5 nM
T2 construct: host or cells: HEK-Blue cells
T2 sequence (Q9NR96 26-1032): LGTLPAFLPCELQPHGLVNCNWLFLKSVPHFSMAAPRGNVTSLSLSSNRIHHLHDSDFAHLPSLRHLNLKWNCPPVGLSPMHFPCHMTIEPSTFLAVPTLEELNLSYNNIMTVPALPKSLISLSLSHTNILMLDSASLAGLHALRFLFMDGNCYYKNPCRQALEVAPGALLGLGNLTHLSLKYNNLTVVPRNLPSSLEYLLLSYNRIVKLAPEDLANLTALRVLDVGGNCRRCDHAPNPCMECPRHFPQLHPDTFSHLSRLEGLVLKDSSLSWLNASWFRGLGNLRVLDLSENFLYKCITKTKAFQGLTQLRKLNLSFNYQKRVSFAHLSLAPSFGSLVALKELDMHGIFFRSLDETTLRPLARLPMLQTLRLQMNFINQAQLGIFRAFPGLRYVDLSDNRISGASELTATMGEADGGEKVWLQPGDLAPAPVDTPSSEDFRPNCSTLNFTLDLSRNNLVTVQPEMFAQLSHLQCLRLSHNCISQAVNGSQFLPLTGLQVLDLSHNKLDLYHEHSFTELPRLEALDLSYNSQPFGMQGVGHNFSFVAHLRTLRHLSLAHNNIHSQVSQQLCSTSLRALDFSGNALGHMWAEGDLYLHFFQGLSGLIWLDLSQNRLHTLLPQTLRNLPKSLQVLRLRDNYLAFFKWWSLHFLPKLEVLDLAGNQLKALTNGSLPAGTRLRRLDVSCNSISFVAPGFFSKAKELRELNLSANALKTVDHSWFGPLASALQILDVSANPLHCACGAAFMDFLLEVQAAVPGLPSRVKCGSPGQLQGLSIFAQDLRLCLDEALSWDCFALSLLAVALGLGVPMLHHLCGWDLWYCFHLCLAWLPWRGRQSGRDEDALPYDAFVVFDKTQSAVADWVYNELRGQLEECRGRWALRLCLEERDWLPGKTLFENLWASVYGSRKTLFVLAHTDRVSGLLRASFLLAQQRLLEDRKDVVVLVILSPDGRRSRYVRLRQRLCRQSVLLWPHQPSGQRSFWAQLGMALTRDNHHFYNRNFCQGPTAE
Method in brief: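 Human TLR7/8/9 HEK-Blue reporter lines; dose range 0.05 nM–50 μM; 30 min RT preincubation; stimulus gardiquimod 7.5 μM / R848 15.9 μM / ODN2006 5 nM respectively; 22 h, 37 °C; SEAP detected colorimetrically.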

| Compound | pIC50 [1] | pIC50 [2] |
| --- | --- | --- |
| COc1ccc(-c2[nH]c3ccc(C4CCN(C(=O)CCn5ccc6ccccc65)CC4)cc3c2CC(F)(F)F)cc1OC [Example 337, 1-(4-(2-(3,4-dimethoxyphenyl)-3-(2,2,2-trifluoroethyl)-1H-indol-5-yl)piperidin-1-yl)-3-(1H-indol-1-yl)propan-1-one] | 5.29 | ≤ 4.30 |
| COc1ccc(-c2[nH]c3ccc(C4CCN(C(=O)CCc5cccnc5)CC4)cc3c2CC(F)(F)F)cc1OC [Example 348, 1-(4-(2-(3,4-dimethoxyphenyl)-3-(2,2,2-trifluoroethyl)-1H-indol-5-yl)piperidin-1-yl)-3-(pyridin-3-yl) propan-1-one] | 5.85 | 4.81 |
| COc1ccc(-c2[nH]c3ccc(C4CCN(C(=O)CCCNC(C)=O)CC4)cc3c2CC(F)(F)F)cc1OC [Example 343, N-(4-(4-(2-(3,4-dimethoxyphenyl)-3-(2,2,2-trifluoroethyl)-1H-indol-5-yl)piperidin-1-yl)-4-oxobutyl)acetamide] | 6.43 | 4.39 |
| COc1ccc(-c2[nH]c3ccc(C4CCN(C(=O)NCc5ccco5)CC4)cc3c2CC(F)(F)F)cc1OC [Example 358, 4-(2-(3,4-dimethoxyphenyl)-3-(2,2,2-trifluoroethyl)-1H-indol-5-yl)-N-(furan-2-ylmethyl)piperidine-1-carboxamide] | 5.53 | ≤ 4.30 |
| COc1ccc(-c2[nH]c3ccc(C4CCNC(=O)C4)cc3c2C(C)C)cc1OC (stereo not drawn) [Example 326, 4-(2-(3,4-dimethoxyphenyl)-3-isopropyl-1H-indol-5-yl)piperidin-2-one] | 6.72 | ≤ 4.30 |
| COc1ccc(-c2[nH]c3ccc(C4CCN(CC(=O)Nc5cc(C(C)(C)C)[nH]n5)CC4)cc3c2CC(F)(F)F)cc1OC [Example 387, N-(5-(tert-butyl)-1H-pyrazol-3-yl)-2-(4-(2-(3,4-dimethoxyphenyl)-3-(2,2,2-trifluoroethyl)-1H-indol-5-yl)piperidin-1-yl)acetamide] | 6.23 | 5.07 |
| COc1ccc(-c2[nH]c3ccc(C4CCN(C(=O)CN[C@H](C)C(C)C)CC4)cc3c2C2CCOCC2)cc1OC [Example 394, (R)-1-(4-(2-(3,4-dimethoxyphenyl)-3-(tetrahydro-2H-pyran-4-yl)-1H-indol-5-yl)piperidin-1-yl)-2-((3-methylbutan-2-yl)amino)ethan-1-one] | 6.18 | 5.56 |
| COc1ccc(-c2[nH]c3ccc(C4CCNCC4F)cc3c2C(C)C)cc1OC (single isomer, unassigned) [Example 322, 2-(3,4-dimethoxyphenyl)-5-(3-fluoropiperidin-4-yl)-3-isopropyl-1H-indole] | 7.66 | 5.55 |
| COc1ccc(-c2[nH]c3ccc(C4CCN(C)CC4)cc3c2CC(F)(F)F)cc1OC [Example 355, 2-(3,4-dimethoxyphenyl)-5-(1-methylpiperidin-4-yl)-3-(2,2,2-trifluoroethyl)-1H-indole] | 7.39 | 5.64 |
| COc1ccc(-c2[nH]c3ccc(C4CCN(C(=O)CCN(C)C)CC4)cc3c2CC(F)(F)F)cc1OC [Example 340, 1-(4-(2-(3,4-dimethoxyphenyl)-3-(2,2,2-trifluoroethyl)-1H-indol-5-yl)piperidin-1-yl)-3-(dimethylamino)propan-1-one] | 7.49 | 6.04 |
| CCN(CCN(C)C)C(=O)CN1CCC(c2ccc3[nH]c(-c4ccc(OC)c(OC)c4)c(CC(F)(F)F)c3c2)CC1 [Example 372, 2-(4-(2-(3,4-dimethoxyphenyl)-3-(2,2,2-trifluoroethyl)-1H-indol-5-yl)piperidin-1-yl)-N-(2-(dimethylamino)ethyl)-N-ethylacetamide] | 7.60 | 6.47 |
| COc1ccc(-c2[nH]c3ccc(C4CCN(CC(=O)N5CCC(N6CCN(C)CC6)CC5)CC4)cc3c2CC(F)(F)F)cc1OC [Example 363, 2-(4-(2-(3,4-dimethoxyphenyl)-3-(2,2,2-trifluoroethyl)-1H-indol-5-yl)piperidin-1-yl)-1-(4-(4-methylpiperazin-1-yl)piperidin-1-yl) ethan-1-one] | 7.36 | 6.57 |
